Measurements as given in US20240041875A1 (priority 2022, published 2024).

How the values were obtained:
SARS-CoV-2 WT strain = test system: SARS-CoV-2 WT strain; parameters: species or system K18-hACE2 mice; details: mouse, in vivo
A549-ACE2 cells = assay: Cytotoxicity to A549-ACE2 cells, CellTiter-Glo Assay; type: cell-based, human; details: 0.1625 nM to 2.5 nM, 24 h
Protocol: FIG. 6. Ponatinib cytotoxicity to A549-ACE2 cells at the concentration range of 0.1625 nM to 2.5 nM). A549-ACE2 cells were treated with ponatinib for 24 h and the cell viability was detected by CellTiter-Glo Assay.

VSV-SARS-CoV-2 [1] = type: cell-based
SARS-CoV-2 = type: cell-based
VSV-SARS-CoV-2 [2] = type: cell-based; remark: listed apart in the source

With `Cc1ccc(C(=O)Nc2ccc(CN3CCN(C)CC3)c(C(F)(F)F)c2)cc1C#Cc1cnc2cccnn12` [ponatinib] the “body weight of infected mice” value (SARS-CoV-2 WT strain) was “two of the five mice treated with ponatinib started to regain body weight on day 7”, the “expression of SARS-CoV-2 nucleocapsid protein (NP) in lung tissues (IHC)” value (SARS-CoV-2 WT strain) was “markedly lower” and the “survival of infected mice” value (SARS-CoV-2 WT strain) was “lived significantly longer than the control group”. The “survival of infected mice at different doses” value (SARS-CoV-2 WT strain) was “Dose-dependent effect”, the “viral RNA copies in the lung (quantitative real-time PCR)” value (SARS-CoV-2 WT strain) was “much lower than in the PBS group” and the “viral titer in the lung (plaque assay)” value (SARS-CoV-2 WT strain) was “significantly decreased the viral load in the lung”. The A549-ACE2 cell viability (A549-ACE2 cells) was “no effect on A549-ACE2 cell viability”, the “inhibition of VSV-SARS-CoV-2 infectivity” value (VSV-SARS-CoV-2 [1]) was “significantly inhibited VSV-SARS-CoV-2 in a dose-dependent manner” and the “inhibition of VSV-SARS-CoV-2 under four treatment conditions (concomitant, virus pre-incubated, cells pretreated, treatment after infection)” value (VSV-SARS-CoV-2 [1]) was “could inhibit VSV-SARS-CoV-2 under all these conditions”. The “inhibition of viral infection / plaque formation, side-by-side comparison” value (VSV-SARS-CoV-2 [1]) was “inhibited plaque formation”, the “reduction of viral infection by live SARS-CoV-2 (plaque assay)” value (SARS-CoV-2) was “significantly reduced viral infection” and the “screening outcome, inhibition of infection by VSV-SARS-CoV-2” value (VSV-SARS-CoV-2 [2]) was “several candidates including ponatinib”.

`Cc1ccc(C(=O)Nc2ccc(CN3CCN(C)CC3)c(C(F)(F)F)c2)cc1C#Cc1cnc2[nH]ncc2c1` [olverembatinib] was tested, and the “inhibition of viral infection / plaque formation, side-by-side comparison” value (VSV-SARS-CoV-2 [1]) was “not olverembatinib treatment inhibited plaque formation”.
